According to patent US20130065757A1, “CHEMICAL COMPOUNDS” (Syngenta Limited, priority 2010, published 2013):

What was measured:
Type in all cases: in vivo
[1] = system: Alopecurus myosuroides (ALOMY); experiment: Pre-emergence biological efficacy, glasshouse pot test; details: 312 h, 1,000 g/ha, evaluated after 13 days, 100=total damage, 0=no damage, read-out: Percentage damage caused to weed species, pre-emergence, ALOMY
Description: (§1) Seeds of Alopecurus myosuroides (ALOMY), Setaria faberi (SETFA), Echinochloa crus-galli (ECHCG), Solanum nigrum (SOLNI), Amaranthus retroflexus (AMARE) and Ipomoea hederaceae (IPOHE) were sown in standard soil in pots. After cultivation for one day under controlled conditions in a glasshouse (at 24/16° C., day/night; 14 hours light; 65% humidity), the plants were sprayed with an aqueous spray solution derived from the formulation of the technical active ingredient in acetone/water (50:50) solution containing 0.5% Tween 20 (polyoxyethylene sorbitan monolaurate, CAS RN 9005-64-5) to give a final dose of 1000 g/ha of test compound.
(§2) The test plants were then grown under controlled conditions in the glasshouse (at 24/16° C., day/night; 14 hours light; 65% humidity) and watered twice daily. After 13 days the test was evaluated (100=total damage to plant; 0=no damage to plant).

[2] = system: Solanum nigrum (SOLNI); experiment: as above; details: 312 h, 1,000 g/ha, evaluated after 13 days, 100=total damage, 0=no damage, read-out: Percentage damage caused to weed species, pre-emergence, SOLNI
Description: as §1, §2

[3] = system: Setaria faberi (SETFA); experiment: as above; details: 312 h, 1,000 g/ha, evaluated after 13 days, 100=total damage, 0=no damage, read-out: Percentage damage caused to weed species, pre-emergence, SETFA
Description: as §1, §2

[4] = system: Ipomoea hederaceae (IPOHE); experiment: as above; details: 312 h, 1,000 g/ha, evaluated after 13 days, 100=total damage, 0=no damage, read-out: Percentage damage caused to weed species, pre-emergence, IPOHE
Description: as §1, §2

[5] = system: Amaranthus retroflexus (AMARE); experiment: as above; details: 312 h, 1,000 g/ha, evaluated after 13 days, 100=total damage, 0=no damage, read-out: Percentage damage caused to weed species, pre-emergence, AMARE
Description: as §1, §2

[6] = system: Echinochloa crus-galli (ECHCG); experiment: as above; details: 312 h, 1,000 g/ha, evaluated after 13 days, 100=total damage, 0=no damage, read-out: Percentage damage caused to weed species, pre-emergence, ECHCG
Description: as §1, §2

[7] = system: Alopecurus myosuroides (ALOMY); experiment: Post-emergence biological efficacy, glasshouse pot test; details: 312 h, 1,000 g/ha, post-emergence (sprayed after 8 days), evaluated after 13 days, 100=total damage, 0=no damage, read-out: Percentage damage caused to weed species, post-emergence, ALOMY
Description: as §1, with “8 days” for “one day”
(§3) The test plants were then grown on under controlled conditions in a glasshouse (at 24/16° C., day/night; 14 hours light; 65% humidity) and watered twice daily. After 13 days the test was evaluated (100=total damage to plant; 0=no damage to plant).

[8] = system: Solanum nigrum (SOLNI); experiment: as above; details: 312 h, 1,000 g/ha, post-emergence (sprayed after 8 days), evaluated after 13 days, 100=total damage, 0=no damage, read-out: Percentage damage caused to weed species, post-emergence, SOLNI
Description: as §1, with “8 days” for “one day”
as §3

[9] = system: Setaria faberi (SETFA); experiment: as above; details: 312 h, 1,000 g/ha, post-emergence (sprayed after 8 days), evaluated after 13 days, 100=total damage, 0=no damage, read-out: Percentage damage caused to weed species, post-emergence, SETFA
Description: as §1, with “8 days” for “one day”
as §3

[10] = system: Ipomoea hederaceae (IPOHE); experiment: as above; details: 312 h, 1,000 g/ha, post-emergence (sprayed after 8 days), evaluated after 13 days, 100=total damage, 0=no damage, read-out: Percentage damage caused to weed species, post-emergence, IPOHE
Description: as §1, with “8 days” for “one day”
as §3

[11] = system: Amaranthus retroflexus (AMARE); experiment: as above; details: 312 h, 1,000 g/ha, post-emergence (sprayed after 8 days), evaluated after 13 days, 100=total damage, 0=no damage, read-out: Percentage damage caused to weed species, post-emergence, AMARE
Description: as §1, with “8 days” for “one day”
as §3

[12] = system: Echinochloa crus-galli (ECHCG); experiment: as above; details: 312 h, 1,000 g/ha, post-emergence (sprayed after 8 days), evaluated after 13 days, 100=total damage, 0=no damage, read-out: Percentage damage caused to weed species, post-emergence, ECHCG
Description: as §1, with “8 days” for “one day”
as §3

COC(=O)c1nc(Cl)cc(N)c1C [Compound 2-1, 4-amino-6-chloro-3-methyl-pyridine-2-carboxylic acid methyl ester]
pest or weed control at 1000 g/ha [1]: 90% | pest or weed control at 1000 g/ha [2]: 100% | pest or weed control at 1000 g/ha [3]: 80% | pest or weed control at 1000 g/ha [4]: 80% | pest or weed control at 1000 g/ha [5]: 100% | pest or weed control at 1000 g/ha [6]: 70% | pest or weed control at 1000 g/ha [7]: 90% | pest or weed control at 1000 g/ha [8]: 90% | pest or weed control at 1000 g/ha [9]: 100% | pest or weed control at 1000 g/ha [10]: 50% | pest or weed control at 1000 g/ha [11]: 100% | pest or weed control at 1000 g/ha [12]: 60%

COC(=O)c1nc(Cl)cc(N)c1C=C(C)C [Compound 2-165, 4-Amino-6-chloro-3-(2-methylprop-1-enyl)-pyridine-2-carboxylic acid methyl ester]
pest or weed control at 1000 g/ha [1]: 80% | pest or weed control at 1000 g/ha [2]: 100% | pest or weed control at 1000 g/ha [3]: 90% | pest or weed control at 1000 g/ha [4]: 90% | pest or weed control at 1000 g/ha [5]: 100% | pest or weed control at 1000 g/ha [6]: 70% | pest or weed control at 1000 g/ha [7]: 70% | pest or weed control at 1000 g/ha [8]: 90% | pest or weed control at 1000 g/ha [9]: 90% | pest or weed control at 1000 g/ha [10]: 70% | pest or weed control at 1000 g/ha [11]: 100% | pest or weed control at 1000 g/ha [12]: 70%

C=Cc1c(N2CCCC2)cc(Cl)nc1C(=O)OC [Compound 31-4, 6-Chloro-3-ethenyl-4-pyrrolidin-1-yl-pyridine-2-carboxylic acid methyl ester]
pest or weed control at 1000 g/ha [1]: 60% | pest or weed control at 1000 g/ha [2]: 90% | pest or weed control at 1000 g/ha [3]: 50% | pest or weed control at 1000 g/ha [4]: 80% | pest or weed control at 1000 g/ha [5]: 100% | pest or weed control at 1000 g/ha [6]: 10% | pest or weed control at 1000 g/ha [7]: 20% | pest or weed control at 1000 g/ha [8]: 90% | pest or weed control at 1000 g/ha [9]: 50% | pest or weed control at 1000 g/ha [10]: 70% | pest or weed control at 1000 g/ha [11]: 90% | pest or weed control at 1000 g/ha [12]: 20%

C/C=C/c1c(N)cc(Cl)nc1C(=O)OC [2-5 (E isomer), (E)-4-Amino-6-chloro-3-(prop-1-enyl)-pyridine-2-carboxylic acid methyl ester]
pest or weed control at 1000 g/ha [1]: 90% | pest or weed control at 1000 g/ha [2]: 100% | pest or weed control at 1000 g/ha [3]: 100% | pest or weed control at 1000 g/ha [4]: 100% | pest or weed control at 1000 g/ha [5]: 90% | pest or weed control at 1000 g/ha [6]: 70% | pest or weed control at 1000 g/ha [7]: 50% | pest or weed control at 1000 g/ha [8]: 90% | pest or weed control at 1000 g/ha [9]: 70% | pest or weed control at 1000 g/ha [10]: 70% | pest or weed control at 1000 g/ha [11]: 100% | pest or weed control at 1000 g/ha [12]: 60%

COC(=O)c1nc(Cl)cc(N)c1C(F)(F)F [Compound 2-2, 4-amino-6-chloro-3-trifluoromethyl-pyridine-2-carboxylic acid methyl ester]
pest or weed control at 1000 g/ha [1]: 20% | pest or weed control at 1000 g/ha [2]: 80% | pest or weed control at 1000 g/ha [3]: 0% | pest or weed control at 1000 g/ha [4]: 90% | pest or weed control at 1000 g/ha [5]: 80% | pest or weed control at 1000 g/ha [6]: 10% | pest or weed control at 1000 g/ha [7]: 10% | pest or weed control at 1000 g/ha [8]: 80% | pest or weed control at 1000 g/ha [9]: 10% | pest or weed control at 1000 g/ha [10]: 70% | pest or weed control at 1000 g/ha [11]: 80% | pest or weed control at 1000 g/ha [12]: 10%

C=Cc1c(C(=O)OC)nc(Cl)c(F)c1N [Compound 2-12, 4-amino-6-chloro-3-ethenyl-5-fluoro-pyridine-2-carboxylic acid methyl ester]
pest or weed control at 1000 g/ha [1]: 100% | pest or weed control at 1000 g/ha [2]: 100% | pest or weed control at 1000 g/ha [3]: 90% | pest or weed control at 1000 g/ha [4]: 100% | pest or weed control at 1000 g/ha [5]: 100% | pest or weed control at 1000 g/ha [6]: 100% | pest or weed control at 1000 g/ha [7]: 80% | pest or weed control at 1000 g/ha [8]: 100% | pest or weed control at 1000 g/ha [9]: 90% | pest or weed control at 1000 g/ha [10]: 80% | pest or weed control at 1000 g/ha [11]: 100% | pest or weed control at 1000 g/ha [12]: 80%

C=C(C)Cc1c(N)cc(Cl)nc1C(=O)OC [Compound 2-8, 4-amino-6-chloro-3-(2-methyl-prop-2-enyl)-pyridine-2-carboxylic acid methyl ester]
pest or weed control at 1000 g/ha [1]: 10% | pest or weed control at 1000 g/ha [2]: 80% | pest or weed control at 1000 g/ha [3]: 10% | pest or weed control at 1000 g/ha [4]: 80% | pest or weed control at 1000 g/ha [5]: 40% | pest or weed control at 1000 g/ha [6]: 0% | pest or weed control at 1000 g/ha [7]: 10% | pest or weed control at 1000 g/ha [8]: 80% | pest or weed control at 1000 g/ha [9]: 10% | pest or weed control at 1000 g/ha [10]: 50% | pest or weed control at 1000 g/ha [11]: 70% | pest or weed control at 1000 g/ha [12]: 0%

COC(=O)c1nc(Cl)cc(N)c1-c1ccc(Cl)cc1 [Compound 2-168, 4-Amino-6-chloro-3-(4-chlorophenyl)-pyridine-2-carboxylic acid methyl ester]
pest or weed control at 1000 g/ha [1]: 30% | pest or weed control at 1000 g/ha [2]: 80% | pest or weed control at 1000 g/ha [3]: 0% | pest or weed control at 1000 g/ha [4]: 80% | pest or weed control at 1000 g/ha [5]: 90% | pest or weed control at 1000 g/ha [6]: 20% | pest or weed control at 1000 g/ha [7]: 20% | pest or weed control at 1000 g/ha [8]: 80% | pest or weed control at 1000 g/ha [9]: 20% | pest or weed control at 1000 g/ha [10]: 70% | pest or weed control at 1000 g/ha [11]: 100% | pest or weed control at 1000 g/ha [12]: 10%

C=Cc1c(NC2CC2)cc(Cl)nc1C(=O)OC [Compound 23-4, 6-Chloro-4-cyclopropylamino-3-ethenyl-pyridine-2-carboxylic acid methyl ester]
pest or weed control at 1000 g/ha [1]: 70% | pest or weed control at 1000 g/ha [2]: 100% | pest or weed control at 1000 g/ha [3]: 80% | pest or weed control at 1000 g/ha [4]: 80% | pest or weed control at 1000 g/ha [5]: 100% | pest or weed control at 1000 g/ha [6]: 70% | pest or weed control at 1000 g/ha [7]: 60% | pest or weed control at 1000 g/ha [8]: 100% | pest or weed control at 1000 g/ha [9]: 80% | pest or weed control at 1000 g/ha [10]: 70% | pest or weed control at 1000 g/ha [11]: 100% | pest or weed control at 1000 g/ha [12]: 30%

C/C=C\c1c(N)cc(Cl)nc1C(=O)OC [2-5 (Z isomer), (Z)-4-Amino-6-chloro-3-(prop-1-enyl)-pyridine-2-carboxylic acid methyl ester]
pest or weed control at 1000 g/ha [1]: 90% | pest or weed control at 1000 g/ha [2]: 100% | pest or weed control at 1000 g/ha [3]: 100% | pest or weed control at 1000 g/ha [4]: 90% | pest or weed control at 1000 g/ha [5]: 100% | pest or weed control at 1000 g/ha [6]: 70% | pest or weed control at 1000 g/ha [7]: 50% | pest or weed control at 1000 g/ha [8]: 100% | pest or weed control at 1000 g/ha [9]: 80% | pest or weed control at 1000 g/ha [10]: 50% | pest or weed control at 1000 g/ha [11]: 100% | pest or weed control at 1000 g/ha [12]: 60%
